Experimental data: US9216962B2 (priority 2011, dated 2015)

Target: recombinant human HDAC1 (Homo sapiens (Human), UniProt Q13547)
Conditions: for IC50: read-out: HDAC1 IC50

Sequence of recombinant human HDAC1 (Q13547 whole entry): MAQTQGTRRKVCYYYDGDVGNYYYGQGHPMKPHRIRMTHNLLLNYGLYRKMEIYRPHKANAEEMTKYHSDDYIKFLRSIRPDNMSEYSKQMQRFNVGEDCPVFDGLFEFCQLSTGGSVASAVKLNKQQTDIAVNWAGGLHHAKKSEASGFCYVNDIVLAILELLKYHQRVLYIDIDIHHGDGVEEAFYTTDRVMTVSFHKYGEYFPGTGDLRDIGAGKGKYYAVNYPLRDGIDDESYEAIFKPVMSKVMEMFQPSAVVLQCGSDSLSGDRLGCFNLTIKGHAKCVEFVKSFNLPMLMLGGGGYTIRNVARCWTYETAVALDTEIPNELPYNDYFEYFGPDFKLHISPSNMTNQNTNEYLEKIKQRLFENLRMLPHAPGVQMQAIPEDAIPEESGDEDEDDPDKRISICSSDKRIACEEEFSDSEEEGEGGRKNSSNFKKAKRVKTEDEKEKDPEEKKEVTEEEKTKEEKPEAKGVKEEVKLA

Question: With `CC(C)Cc1sc(-c2nccs2)nc1C(=O)NCC(=O)NO` [CFH340] as the compound, how does the “HDAC1 IC50” value read?
Answer: The value was “NA^a”.

Question: With `C=Cc1sc(-c2nccs2)nc1C(=O)NCCCNC(=O)CS` [CFH367-S] as the compound, how does the IC50 read?
Answer: Its IC50 is 1830 nM.

Question: How did the IC50 turn out when `Cc1nc(-c2nc(C(=O)NCCCCC(=O)NO)c(C3CC3)s2)sc1C` [CFH395-M] was run?
Answer: The IC50 was 50 nM.

Question: With `Cc1cnc(-c2nc(C(=O)NCCCCC(=O)NO)c(CC(C)C)s2)s1` [CFH397-2] as the compound, how does the IC50 read?
Answer: The IC50 was 917 nM.

Question: For `Cc1nc(-c2nc(C(=O)NCCCCC(=O)NO)c(CC(C)C)s2)cs1` [CFH397], which IC50 is on record?
Answer: The IC50 was 438 nM.

Question: With `CC(C)Cc1sc(-c2nccs2)nc1C(=O)NCCCCCCC(=O)NO` [CFH410] as the compound, how does the IC50 read?
Answer: The IC50 was 178 nM.

Question: Which IC50 does the source give for `CC(C)/C=C/c1sc(-c2nccs2)nc1C(=O)NCCCNC(=O)CS` [CFH411] here?
Answer: The IC50 was 956 nM.

Question: Which IC50 does the source give for `CC(C)Cc1sc(-c2nccs2)nc1C(=O)Nc1cccc(/C=C/C(=O)NO)c1` [CFH429] here?
Answer: Its IC50 is 657 nM.

Question: `O=C(CCCCNC(=O)c1nc(-c2ncc(-c3ccccc3)s2)sc1C1CC1)NO` [CFH443-5] was tested. Which IC50 did it give?
Answer: The IC50 was 32 nM.

Question: `CC(C)Cc1sc(-c2nccs2)nc1C(=O)NCCCCC(=O)Nc1ccccc1N` [CFH494] was tested. Which IC50 did it give?
Answer: The IC50 was 5910 nM.

Question: For `CC(C)Cc1sc(-c2nccs2)nc1C(=O)NCCCCCC(=O)Nc1ccccc1N` [CFH508], which IC50 is on record?
Answer: Its IC50 is 984 nM.

Question: How did the IC50 turn out when `CC(C)Cc1sc(-c2nccs2)nc1C(=O)NCCCCCCC(=O)Nc1ccccc1N` [CFH522] was run?
Answer: Its IC50 is 15300 nM.
